This passage reports MIC results from DBAASP.

What all share (assay): ≥ marks a high value that may be exact or a test limit, other limits are often not marked, values filed in µg/mL are converted to µM
The test system of test [1] is Acinetobacter johnsonii NCDC 0072.
Test [2] has as its system Bacillus cereus NCDC 0240.
The test system of test [3] is Escherichia coli MTCC 0723.
Test [4] deals with Listeria monocytogenes ATCC 19111.
In test [5] the test system is Pseudomonas aeruginosa ATCC 27853.
Test [6] relates to Pseudomonas aeruginosa NCDC 0105.
Test [7] has as its system Salmonella enterica subsp. enterica serovar Typhimurium ATCC 14028.
The subject of test [8] is Staphylococcus aureus ATCC 29213.
Test [9] relates to Staphylococcus aureus NCDC 0111.
In test [10] the test system is Bacillus subtilis ATCC 6633.
The test system of test [11] is Klebsiella pneumoniae ATCC 27736.
The test system of test [12] is Pseudomonas aeruginosa ATCC BAA-427.
Test [13] has as its system Enterococcus faecium ATCC 700221.
Test [14] relates to Escherichia coli ATCC 25922.
Test [15] has as its system Staphylococcus aureus ATCC 33591.
The subject of test [16] is Bacillus subtilis KCTC 1918.
In test [17] the test system is Candida albicans TIMM 1768.
Test [18] concerns Pseudomonas aeruginosa KCTC 1637.
The subject of test [19] is Salmonella typhimurium KCTC 1926.
In test [20] the test system is Staphylococcus epidermidis KCTC 3096.
Test [21] deals with Trichosporon beigelii KCTC 7707.
The subject of test [22] is Aspergillus flavus IFFI 4015.
Test [23] has as its system Bacillus megaterium.
Test [24] deals with Candida albicans ATCC 2002.
The subject of test [25] is Klebsiella pneumoniae.
Test [26] relates to Penicillium urticae IFFI 2001.
Test [27] relates to Pseudomonas aeruginosa CMCCB 10104.
Test [28] deals with Shigella dysenteriae.
Test [29] deals with Staphylococcus aureus ATCC 2592.
Test [30] has as its system Escherichia coli AB94012.
Test [31] deals with Pseudomonas aeruginosa AB93066.
In test [32] the test system is Pseudomonas aeruginosa ATCC 9027.
For test [33], the system named is Staphylococcus aureus AB94004.
In test [34] the test system is Staphylococcus aureus ATCC 25923.
Test [35] relates to Staphylococcus aureus ATCC 6538.
In test [36] the test system is Staphylococcus aureus P1374.
Test [37] relates to Staphylococcus aureus P1381.

Values after ≈ are worked out from the molar mass of the structure shown.

In the case of `CC[C@H](C)[C@H](NC(=O)[C@H](Cc1c[nH]c2ccccc12)NC(=O)[C@@H](NC(=O)[C@H](Cc1c[nH]c2ccccc12)NC(=O)[C@@H]1CCCN1C(=O)[C@@H](NC(=O)[C@H](C)N)[C@@H](C)CC)[C@@H](C)CC)C(=O)N[C@@H](Cc1c[nH]c2ccccc12)C(=O)N[C@@H](Cc1c[nH]c2ccccc12)C(=O)N[C@@H](CC(C)C)C(=O)N[C@@H](CC(C)C)C(=O)N[C@@H](CCCN=C(N)N)C(=O)N[C@@H](CCCCN)C(=O)NCC(=O)O` [AIPWIWIWWLLRKG], the MIC came to 1.5 µM (≈ 2.76 µg/mL) in test [1]; 0.8 µM (≈ 1.47 µg/mL) in [2]; 6 µM (≈ 11 µg/mL) in [3]; 6 µM (≈ 11 µg/mL) in test [4]; 6 µM (≈ 11 µg/mL) in [5]; 6 µM (≈ 11 µg/mL) in test [6]. Also, the results for the minimal inhibitory concentration (MIC) in test [7], in test [8] and in test [9] were 1.5 µM (≈ 2.76 µg/mL), 6 µM (≈ 11 µg/mL) and 0.4 µM (≈ 0.735 µg/mL), respectively.
As to `CC[C@H](C)[C@H](NC(=O)CNC(=O)[C@H](CCCN=C(N)N)NC(=O)[C@H](Cc1ccccc1)NC(=O)[C@@H](NC(=O)[C@H](Cc1cnc[nH]1)NC(=O)[C@H](Cc1cnc[nH]1)NC(=O)[C@H](Cc1ccccc1)NC(=O)[C@@H](N)Cc1ccccc1)[C@@H](C)CC)C(=O)N[C@H](C(=O)N[C@@H](Cc1cnc[nH]1)C(=O)N[C@H](C(=O)NCC(=O)N[C@@H](CCCCN)C(=O)N[C@H](C(=O)N[C@H](C(=O)N[C@@H](Cc1cnc[nH]1)C(=O)N[C@@H](CCCN=C(N)N)C(=O)N[C@@H](CC(C)C)C(=O)N[C@H](C(=O)N[C@H](C(=O)NCC(N)=O)[C@@H](C)O)C(C)C)C(C)C)[C@@H](C)O)C(C)C)C(C)C` [FFHHIFRGIVHVGKTVHRLVTG], the MIC in [10] was 8 µM (≈ 20.5 µg/mL); in test [11] it was 6 µM (≈ 15.3 µg/mL); in [12], 12 µM (≈ 30.7 µg/mL).
For the molecule `CC[C@H](C)[C@H](NC(=O)[C@H](CCCCN)NC(=O)[C@H](CCCCN)NC(=O)[C@H](CC(C)C)NC(=O)[C@H](CC(C)C)NC(=O)[C@H](CCCCN)NC(=O)[C@H](CCCCN)NC(=O)[C@@H](NC(=O)[C@@H](NC(=O)[C@H](CC(=O)O)NC(=O)[C@H](Cc1ccccc1)NC(=O)[C@H](CC(C)C)NC(=O)CN)C(C)C)[C@@H](C)CC)C(=O)NCC(=O)NCC(=O)N[C@@H](CC(C)C)C(N)=O` [GLFDVIKKLLKKIGGL], the MIC in test [13] was 1.6 µM (≈ 2.79 µg/mL); in test [14], 6.3 µM (≈ 11 µg/mL); in test [5] it was 12.5 µM (≈ 21.8 µg/mL); in test [15], 3.1 µM (≈ 5.4 µg/mL).
`CC(C)C[C@H](NC(=O)[C@H](Cc1ccccc1)NC(=O)[C@H](CCCCN)NC(=O)[C@@H]1CCCN1C(=O)[C@H](CCCCN)NC(=O)[C@H](CCCCN)NC(=O)[C@H](CCCCN)NC(=O)[C@H](CCCCN)NC(=O)[C@H](CCCCN)NC(=O)[C@H](CCCCN)NC(=O)[C@H](Cc1c[nH]c2ccccc12)NC(=O)[C@@H](N)CCCCN)C(N)=O` [KWKKKKKKPKFL]: the MIC in test [16] stood at 6.25 µM (≈ 9.91 µg/mL); in test [17], 25 µM (≈ 39.7 µg/mL); in test [18], 3.12 µM (≈ 4.95 µg/mL); in test [19], 2.21 µM (≈ 3.5 µg/mL); in [20], 12.5 µM (≈ 19.8 µg/mL); in [21], 25 µM (≈ 39.7 µg/mL).
As to `CC[C@H](C)[C@H](NC(=O)[C@H](CCCCN)NC(=O)[C@H](C)NC(=O)CNC(=O)[C@@H](NC(=O)[C@@H](N)CO)[C@@H](C)CC)C(=O)N[C@@H](CC(C)C)C(=O)NCC(=O)NCC(=O)N[C@H](C(=O)N[C@@H](CCCCN)C(=O)N[C@H](C(=O)N[C@@H](Cc1ccccc1)C(=O)N[C@@H](Cc1ccccc1)C(=O)N[C@@H](CCCCN)C(=O)NCC(=O)N[C@@H](C)C(=O)N[C@@H](CC(C)C)C(=O)N[C@@H](CCCCN)C(=O)N[C@@H](CCC(=O)O)C(=O)N[C@@H](CC(C)C)C(=O)N[C@@H](C)C(=O)N[C@@H](CO)C(=O)N[C@H](C(=O)N[C@@H](Cc1ccc(O)cc1)C(=O)N[C@@H](CC(C)C)C(=O)N[C@@H](CCC(N)=O)C(=O)O)[C@@H](C)O)[C@@H](C)O)C(C)C` [SIGAKILGGVKTFFKGALKELASTYLQ], the MIC came out at 4.22 µM (≈ 12 µg/mL) in [22]; 4.22 µM (≈ 12 µg/mL) in test [23]; 0.422 µM (≈ 1.2 µg/mL) in test [24]; 1.27 µM (≈ 3.6 µg/mL) in test [25]; 4.22 µM (≈ 12 µg/mL) in [26]; 2.53 µM (≈ 7.2 µg/mL) in test [27]. For the same molecule, the MIC in test [28] was found to be 4.22 µM (≈ 12 µg/mL); in test [29] it was 1.27 µM (≈ 3.6 µg/mL).
Turning to `CC[C@H](C)[C@H](NC(=O)[C@H](CO)NC(=O)[C@H](CCCCN)NC(=O)[C@@H](NC(=O)CNC(=O)[C@H](CCCCN)NC(=O)[C@H](Cc1c[nH]c2ccccc12)NC(=O)[C@H](CC(C)C)NC(=O)[C@H](CCCCN)NC(=O)CNC(=O)[C@H](CC(C)C)NC(=O)[C@@H](NC(=O)[C@@H](N)CO)[C@@H](C)CC)C(C)C)C(=O)N[C@@H](Cc1ccccc1)C(N)=O` [SILGKLWKGVKSIF], the MIC in test [30] is 15.9 µM (≈ 25 µg/mL); in test [14], 31.7 µM (≈ 50 µg/mL); in test [31] it was 31.7 µM (≈ 50 µg/mL); in [32], 15.9 µM (≈ 25 µg/mL); in [33], 3.97 µM (≈ 6.25 µg/mL); in test [34] it was 3.97 µM (≈ 6.25 µg/mL). Besides, the MIC in test [35] was 3.97 µM (≈ 6.25 µg/mL); in test [36], 3.97 µM (≈ 6.25 µg/mL); in test [37], 7.93 µM (≈ 12.5 µg/mL).

As usually defined, the MIC is the smallest concentration in the dilution series that meets the test's criterion for growth inhibition. Higher therefore signals a less susceptible organism.
